# Test results: patent publication US5556941A, “Glycopeptide derivatives, a process for their preparation and pharmaceutical agents containing these compounds” (Behringwerke Aktiengesellschaft, priority 1992, dated 1996)
# Experiments:
# human thrombin = molecular target: T1, human thrombin (Homo sapiens, UniProt P00734); experiment: Determination of the inhibition constants (Ki) for thrombin, chromogenic substrate S-2238; assay type: biochemical; details: 100 pM human thrombin, pH 7.8, 37° C., 10 minutes preincubation, tight-binding evaluation
# T1 construct: By proteolysis the proenzyme prothrombin is converted into thrombin
# Method: The inhibition constants (Ki) of the compounds of the formula I were determined in established enzyme-kinetic procedures. […] Inhibitor and enzyme were preincubated for 10 minutes, and the reaction was started by addition of the chromogenic substrate S2238. For the evaluation of the kinetics, the mathematical algorithm for tight-binding was used, which gave Ki values and the inhibition type with the aid of non-linear regression.
# [1] = molecular target: T2, trypsin from bovine pancreas (Bos taurus, UniProt P00760); experiment: Determination of the specificity of the inhibitors: Ki of trypsin, substrate Chromozyme TRY; assay type: biochemical; details: for Ki: 0.5 nM bovine pancreas trypsin, pH 7.8, 37° C., 10 minute preincubation; for Specificity Try/Thr: ratio Ki trypsin / Ki thrombin
# T2 construct: from tissue; host or cells: bovine pancreas
# T2 sequence (P00760 24-246): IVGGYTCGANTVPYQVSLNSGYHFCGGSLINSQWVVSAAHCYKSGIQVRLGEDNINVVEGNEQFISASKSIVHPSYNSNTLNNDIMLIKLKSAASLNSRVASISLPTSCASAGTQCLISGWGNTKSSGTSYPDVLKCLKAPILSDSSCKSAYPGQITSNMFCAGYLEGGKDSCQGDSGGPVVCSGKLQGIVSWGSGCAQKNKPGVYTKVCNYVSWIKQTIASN
# Method: The specificity of the inhibitors towards thrombin and trypsin was determined. The Ki of trypsin was determined in an analogous manner to the determination of the Ki of thrombin. The reaction mixture was composed as follows--buffer: 200 mM triethanolamine, 20 mM CaCl2, pH 7.8; 37° C.; enzyme: 0.5 nM trypsin from bovine pancreas; substrate: 500 μM carbobenzoxy-L-valyl-glycyl-L-arginine-4-nitranilide (Chromozyme TRY, from Boehringer Mannheim). The enzymatic reaction was started after a 10 minute preincubation by addition of the substrate.
# CD rats = experiment: Determination of the acute toxicity; assay type: in vivo, rat; details: i.v., survival on day 1, Litchfield & Wilcoxon method
# Method: To determine the acute toxicity, CD rats were injected i.v. on day 0 with different doses of the test substance dissolved in 0.5 mL of physiol. NaCl solution. Control groups received only 0.5 mL of physiol. NaCl solution. 2 rats were used per concentration of the test substance. The number of rats surviving on day 1 was determined and the LD5, LD50 and LD95 were calculated by the Litchfield & Wilcoxon method. […] The results are summarized in Table I. Pharmacological data and activities of some selected compounds: […]
# thrombin = details: cited from earlier work
SMILES,Ki (human thrombin),Ki [1],Specificity Try/Thr [1],LD50 (rat) (CD rats),specificity for thrombin (thrombin)
"COc1cc(C)c(S(=O)(=O)N[C@@H](CC(=O)O)C(=O)N[C@H](Cc2ccc(C(=N)N)cc2)C(=O)N2CCCCC2)c(C)c1C.Cl [Compound 43, 2-N-(4-Methoxy-2,3,6-trimethyl-benzenesulfonyl)-L-Asp-4-amidino-D-phenylalanine-piperidide×HCl]",1.5 nM,187 nM,125,62 mg/kg,–
"COc1cc(C)c(S(=O)(=O)N[C@@H](CC(=O)N[C@@H]2O[C@H](CO)[C@@H](O)[C@H](O)[C@H]2NC(C)=O)C(=O)N[C@H](Cc2ccc(C(=N)N)cc2)C(=O)N2CCCCC2)c(C)c1C.Cl [Compound 32, 2-N-(4-Methoxy-2,3,6-trimethyl-benzenesulfonyl)-4-N-(2-acetamido-2-deoxy-β-D-glucopyranosyl)-L-asparaginyl-4-amidino-D-phenylalanine-piperidide hydrochloride]",1.1 nM,528 nM,480,53 mg/kg,–
"COc1cc(C)c(S(=O)(=O)N[C@@H](CC(=O)N[C@@H]2O[C@H](COC(C)=O)[C@@H](OC(C)=O)[C@H](OC(C)=O)[C@H]2OC(C)=O)C(=O)N[C@H](Cc2ccc(C(=N)N)cc2)C(=O)N2CCCCC2)c(C)c1C.Cl [Compound 25, 2-N-(4-Methoxy-2,3,6-trimethyl-benzenesulfonyl)-4-N-(2,3,4,6-tetra-O-acetyl-β-D-glucopyranosyl)-L-asparaginyl-4-amidino-D-phenylalanine-piperidide hydrochloride]",2.4 nM,283 nM,118,55 mg/kg,–
"N=C(N)c1ccc(CC(NC(=O)CNS(=O)(=O)c2ccc3ccccc3c2)C(=O)N2CCCCC2)cc1 (centres unmarked) [NAPAP, 2-N-(2-naphthalenesulfonylglycyl)-4-amidino-phenylalaninc piperidide]",–,–,–,–,too low
"COC(=O)C1OC(NC(=O)C[C@H](NS(=O)(=O)c2c(C)cc(OC)c(C)c2C)C(=O)N[C@H](Cc2ccc(C(=N)N)cc2)C(=O)N2CCCCC2)C(OC(C)=O)C(OC(C)=O)C1OC(C)=O.Cl (stereo partly drawn) [Compound 24, 2-N-(4-Methoxy-2,3,6-trimethyl-benzenesulfonyl)-4-N-[methyl (2,3,4-tri-O-acetyl-β-D-glucopyranosyl)uronate]-L-asparaginyl-4-amidino-D-phenylalanine-piperidide hydrochloride]",0.8 nM,231 nM,289,46 mg/kg,–
"COc1cc(C)c(S(=O)(=O)N[C@@H](CC(=O)N[C@@H]2O[C@H](CO)[C@@H](O)[C@H](O)[C@H]2O)C(=O)N[C@H](Cc2ccc(C(=N)N)cc2)C(=O)N2CCCCC2)c(C)c1C.Cl [Compound 31, 2-N-(4-Methoxy-2,3,6-trimethyl-benzenesulfonyl)-4-N-[(β-D-glucopyranosyl)-L-asparaginyl-4-amidino-D-phenylalanine-piperidide hydrochloride]",0.075 nM,501 nM,–,–,–
"COc1cc(C)c(S(=O)(=O)N[C@@H](CC(=O)N[C@H]2O[C@@H](C)[C@@H](O)[C@@H](O)[C@@H]2O)C(=O)N[C@H](Cc2ccc(C(=N)N)cc2)C(=O)N2CCCCC2)c(C)c1C.Cl [Compound 49, 2-N-(4-Methoxy-2,3,6-trimethyl-benzenesulfonyl)-4-N-(β-L-fucopyranosyl)-L-aspaginyl-4-amidino-D-phenylalanine-piperidide hydrochloride]",0.1 nM,531 nM,5310,52 mg/kg,–
"COc1cc(C)c(S(=O)(=O)N[C@@H](CO[C@@H]2OC[C@@H](O)[C@@H](O)[C@H]2O)C(=O)N[C@H](Cc2ccc(C(=N)N)cc2)C(=O)N2CCCCC2)c(C)c1C.I [Compound 42, 2-N-(4-Methoxy-2,3,6-trimethyl-benzenesulfonyl)-3-O-(β-D-ribo-pyranosyl)-L-seryl-4-amidino-D-phenylalanine-piperidide hydroiodide]",1.3 nM,650 nM,500,60 mg/kg,–
COc1cc(C)c(S(=O)(=O)N[C@@H](CC(=O)N[C@@H]2O[C@H](CO)[C@@H](O)[C@H](O)[C@H]2O)C(=O)N[C@H](Cc2ccc(C(=N)N)cc2)C(=O)N2CCCCC2)c(C)c1C.Cl [Compound 31],–,–,6680,45 mg/kg,–
"COc1cc(C)c(S(=O)(=O)N[C@@H](CC(=O)N[C@@H]2O[C@H](CO)[C@H](O)[C@H](O)[C@H]2O)C(=O)N[C@H](Cc2ccc(C(=N)N)cc2)C(=O)N2CCCCC2)c(C)c1C.Cl [Compound 41, 2-N-(4-Methoxy-2,3,6-trimethyl-benzenesulfonyl)-4-N-(β-D-galactopyranosyl)-L-asparaginyl-4-amidino-D-phenylalanine-piperidide hydrochloride]",0.04 nM,375 nM,9375,50 mg/kg,–
"COc1cc(C)c(S(=O)(=O)N[C@@H](CC(=O)N[C@@H]2O[C@H](C(=O)O)[C@@H](O)[C@H](O)[C@H]2O)C(=O)N[C@H](Cc2ccc(C(=N)N)cc2)C(=O)N2CCCCC2)c(C)c1C.Cl [Compound 30, 2-N-(4-Methoxy-2,3,6-trimethyl-benzenesulfonyl)-4-N-[(β-D-glucopyranosyl)-uronic acid]-L-asparaginyl-4-amidino-D-phenylalanine-piperidide hydrochloride]",0.085 nM,349 nM,4106,51 mg/kg,–
"COc1cc(C)c(S(=O)(=O)N[C@@H](CC(=O)N[C@@H]2O[C@H](CO)[C@H](O)[C@H](O)[C@H]2NC(C)=O)C(=O)N[C@H](Cc2ccc(C(=N)N)cc2)C(=O)N2CCCCC2)c(C)c1C.Cl [Compound 50, 2-N-(4-Methoxy-2,3,6-trimethyl-benzenesulfonyl)-4-N-(2-acetamido-2-deoxy-β-D-galactopyranosyl)-L-asparaginyl-4-amidino-D-phenylalanine-piperididehydrochloride]",2.1 nM,608 nM,289,64 mg/kg,–
